# Patent publication US9512120B2, “Microbicidally active imidazopyridine derivatives” (Syngenta Participations AG, priority 2013, dated 2016)
# Assays:
# Pyrenophora teres = Pyrenophora teres / barley / leaf disc preventative (net blotch); type: in vivo; conditions: foliar, barley leaf segments cv Hasso, inoculated two days after application, assessed 5-7 days after application, read-out: control of Pyrenophora teres (disease control compared to untreated)
# How it was run: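 Barley cv Hasso leaf segments on agar sprayed with compound at 200 ppm, inoculated with spores two days later. Kept at 20 °C, 65% RH, 12/12 h light; disease control versus untreated scored 5-7 days after application.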
# [1] = tested on: Puccinia recondita f. sp. Tritici; assay: Puccinia recondita f. sp. tritici / wheat / leaf disc preventative (brown rust); type: in vivo; conditions: foliar, wheat leaf segments cv Kanzler, inoculated 1 day after application, assessed 7-9 days after application, read-out: control of Puccinia recondita f. sp. Tritici (percent disease control compared to untreated)
# How it was run: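 Leaf segments of wheat cv Kanzler on agar were sprayed with formulated compound at 200 ppm and inoculated with spores 1 day later. Incubation was at 19° C, 75% relative humidity and 12/12 h light/dark. Activity was scored 7-9 days after application as percent disease control versus untreated.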
# [2] = tested on: Mycosphaerella arachidis (Cercospora arachidicola); assay: Mycosphaerella arachidis (Cercospora arachidicola) / liquid culture (early leaf spot); type: cell-based; conditions: PDB, 24° C., 4-5 days after application, read-out: control of Mycosphaerella arachidis (inhibition of growth, photometric)
# Procedure: Mycosphaerella Arachidis (Cercospora arachidicola)/Liquid Culture (Early Leaf Spot): Conidia of the fungus from cryogenic storage were directly mixed into nutrient broth (PDB potato dextrose broth). After placing a DMSO solution of test compound into a 96-well microtiter plate at an application rate of 200 ppm, the nutrient broth containing the fungal spores was added. The test plates are incubated at 24° C. and the inhibition of growth was determined photometrically 4-5 days after application.
# [3] = tested on: Mycosphaerella graminicola (Septoria tritici); assay: Mycosphaerella graminicola (Septoria tritici) / liquid culture (Septoria blotch); type: cell-based; conditions: Zymoseptoria tritici, PDB, 24° C., 4-5 days after application, read-out: control of Mycosphaerella graminicola (inhibition of growth, photometric)
# How it was run: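 Cryo-stored conidia in potato dextrose broth were added to compound in DMSO at 200 ppm in microtiter plates. Plates were incubated at 24 °C and growth inhibition was measured photometrically 4–5 days after application.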
# [4] = tested on: Phaeosphaeria nodorum (Septoria nodorum); assay: Phaeosphaeria nodorum (Septoria nodorum) / wheat / leaf disc preventative (glume blotch); type: in vivo; conditions: Parastagonospora nodorum, foliar, wheat leaf segments cv Kanzler, inoculated 2 days after application, assessed 5-7 days after application, read-out: control of Phaeosphaeria nodorum (percent disease control compared to untreated)
# How it was run: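 Wheat leaf segments (cv Kanzler) on agar sprayed with compound at 200 ppm, inoculated with spores 2 days later. Incubated at 20° C., 75% relative humidity, 12/12 h light/dark; percent disease control versus untreated scored 5-7 days after application.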
# Plasmopara viticola = Plasmopara viticola / grape / leaf disc preventative; type: in vivo; conditions: foliar, grape vine leaf disks, inoculated 1 day after application, assessed 6-8 days after application, read-out: control of Plasmopara viticola (percent disease control compared to untreated)
# [5] = tested on: Thanatephorus cucumeris (Rhizoctonia solani); assay: Thanatephorus cucumeris (Rhizoctonia solani) / liquid culture (foot rot, damping-off); type: cell-based; conditions: PDB, 24° C., 3-4 days after application, read-out: control of Thanatephorus cucumeris (inhibition of growth, photometric)
# How it was run: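 Mycelial fragments in potato dextrose broth exposed to test compounds at 200 ppm (from DMSO solution), incubated at 24° C. Growth inhibition read photometrically 3-4 days after application.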
# [6] = tested on: Botryotinia fuckeliana (Botrytis cinerea); assay: Botryotinia fuckeliana (Botrytis cinerea) / liquid culture (gray mould); type: cell-based; conditions: Vogels broth, 24° C., 3-4 days after application, read-out: control of Botryotinia fuckeliana (inhibition of growth, photometric)
# How it was run: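 Botrytis cinerea conidia in Vogels broth were added to test compound applied from DMSO at 200 ppm. Incubation at 24 °C; growth inhibition read photometrically 3-4 days after application.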
# [7] = tested on: Glomerella lagenarium (Colletotrichum lagenarium); assay: Glomerella lagenarium (Colletotrichum lagenarium) / liquid culture (anthracnose); type: cell-based; conditions: Colletotrichum orbiculare, PDB, 24° C., 3-4 days after application, read-out: control of Glomerella lagenarium (inhibition of growth, photometric)
# How it was run: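 Cryopreserved conidia suspended in potato dextrose broth were added to compound in DMSO applied at 200 ppm. Plates incubated at 24° C; growth inhibition read photometrically 3-4 days after application.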
# [8] = tested on: Monographella nivalis (Microdochium nivale); assay: Monographella nivalis (Microdochium nivale) / liquid culture (foot rot cereals); type: cell-based; conditions: PDB, 24° C., 4-5 days after application, read-out: control of Monographella nivalis (inhibition of growth, photometric)
# How it was run: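 Cryostored conidia in potato dextrose broth were added to test compound dispensed from DMSO at 200 ppm. Plates were kept at 24° C, and growth inhibition was read photometrically 4-5 days after application.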
# Gaeumannomyces graminis = Gaeumannomyces graminis / liquid culture (take-all of cereals); type: cell-based; conditions: PDB, 24° C., 4-5 days after application, read-out: control of Gaeumannomyces graminis (inhibition of growth, photometric)
# How it was run: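 Mycelial fragments in potato dextrose broth were exposed to compound from DMSO at 200 ppm in microtiter plates. Incubation at 24 °C; growth inhibition read photometrically 4-5 days after application.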
# Sclerotinia sclerotiorum = Sclerotinia sclerotiorum liquid culture (cottony rot / white mold); type: cell-based; conditions: PDB, 24° C., 3-4 days after application, read-out: control of Sclerotinia sclerotiorum (inhibition of growth, photometric)
# How it was run: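 Mycelia fragments of Sclerotinia sclerotiorum in potato dextrose broth were added to compound in DMSO. Cultures incubated at 24° C; growth inhibition determined photometrically 3-4 days after application.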
# [9] = tested on: Blumeria graminis f. Sp. Tritici (Erysiphe graminis f. Sp. Tritici); assay: Blumeria graminis f. sp. tritici / wheat / leaf disc preventative (powdery mildew on wheat); type: in vivo; conditions: foliar, wheat leaf segments cv. Kanzler, inoculated 1 day after application, assessed 6-8 days after application, read-out: control of Blumeria graminis (percent disease control compared to untreated)
# Procedure: Blumeria graminis f. Sp. Tritici (Erysiphe graminis f. Sp. Tritici)/Wheat/Leaf Disc Preventative (Powdery Mildew on Wheat):
# Wheat leaf segments cv. Kanzler were placed on agar in a 24-well plate and sprayed with the formulated test compound diluted in water at an application rate of 200 ppm. The leaf disks were inoculated by shaking powdery mildew infected plants above the test plates 1 day after application. The inoculated leaf disks were incubated at 20° C. and 60% relative humidity under a light regime of 24 h darkness followed by 12 h/12 h (dark/light) in a climate chamber and the activity of a compound was assessed as percent disease control compared to untreated when an appropriate level of disease damage appears on untreated check leaf segments (6-8 days after application). The following compounds gave at least 80% control of Blumeria graminis at 200 ppm when compared to untreated control leaf disks under the same conditions, which show extensive disease development: 2, 13, 23, 50, 59, 61, 67, 75, 85, 86, 89, 90, 93, 102, 103, 107, 134, 136, 137, 138, 139, 141, 145, 151, 153, 154, 163, 173, 174
melting point [°C],SMILES,pest or weed control at 200 ppm (Pyrenophora teres) [%],pest or weed control at 200 ppm [1] [%],inhibition at 20 ppm [2] [%],inhibition at 20 ppm [3] [%],pest or weed control at 200 ppm [4] [%],pest or weed control at 200 ppm (Plasmopara viticola) [%],inhibition at 20 ppm [5] [%],inhibition at 20 ppm [6] [%],inhibition at 20 ppm [7] [%],inhibition at 20 ppm [8] [%],inhibition at 20 ppm (Gaeumannomyces graminis) [%],inhibition at 20 ppm (Sclerotinia sclerotiorum) [%],pest or weed control at 200 ppm [9] [%]
,"CCn1c(-n2ncnc2N)nc2cncc(-c3ccc(C)cc3C)c21 [Compound 45, 2-[7-(2,4-dimethylphenyl)-1-ethylimidazo[4,5-c]pyridin-2-yl]-1,2,4-triazol-3-amine]",≥ 80,≥ 80,≥ 80,≥ 80,≥ 80,≥ 80,≥ 80,≥ 80,,,,,
,"CCn1c(-n2ncnc2N)nc2cncc(-c3cccc4c3OC(F)(F)O4)c21 [Compound 48, 2-[7-(2,2-difluoro-1,3-benzodioxol-4-yl)-1-ethylimidazo[4,5-c]pyridin-2-yl]-1,2,4-triazol-3-amine]",≥ 80,≥ 80,≥ 80,≥ 80,≥ 80,≥ 80,≥ 80,≥ 80,≥ 80,≥ 80,≥ 80,≥ 80,
,"CCn1c(-n2ncnc2N)nc2cncc(-c3cncnc3)c21 [Compound 50, 2-(1-ethyl-7-pyrimidin-5-ylimidazo[4,5-c]pyridin-2-yl)-1,2,4-triazol-3-amine]",,,,,,,,,,,,,≥ 80
183 to 186,"CCn1c(-n2ncnc2N)nc2cncc(C3=CCN(C(=O)OC(C)(C)C)CC3)c21 [Compound 107, tert-butyl 4-[2-(5-amino-1,2,4-triazol-1-yl)-1-ethylimidazo[4,5-c]pyridin-7-yl]-3,6-dihydro-2H-pyridine-1-carboxylate]",,,,,,,,,,,,,≥ 80
201 to 209,"CCn1c(-n2ncnc2N)nc2cncc(C3CC(c4ccccc4)=NO3)c21 (stereo not drawn) [Compound 109, 2-[1-ethyl-7-(3-phenyl-4,5-dihydro-1,2-oxazol-5-yl)imidazo[4,5-c]pyridin-2-yl]-1,2,4-triazol-3-amine]",≥ 80,≥ 80,,≥ 80,,≥ 80,≥ 80,≥ 80,,,≥ 80,,
160 to 165,CCON=C(C)c1cncc2nc(-n3ncnc3N)n(CC)c12 [Compound 134],≥ 80,≥ 80,≥ 80,≥ 80,,,≥ 80,≥ 80,,≥ 80,≥ 80,,≥ 80
175 to 187,CCn1c(-n2ncnc2N)nc2cncc(C(C)=NOCc3ccc(F)cc3)c21 [Compound 135],≥ 80,≥ 80,,≥ 80,,≥ 80,≥ 80,≥ 80,,,≥ 80,,
228 to 240,"CCn1c(-n2ncnc2N)nc2cncc(C(C)=NO)c21 [Compound 136, 1-[2-(5-amino-1,2,4-triazol-1-yl)-1-ethyl-imidazo[4,5-c]pyridin-7-yl]ethanone oxime]",≥ 80,,,,,,,,≥ 80,,≥ 80,,≥ 80
142 to 146,C=CCON=C(C)c1cncc2nc(-n3ncnc3N)n(CC)c12 [Compound 138],≥ 80,,,≥ 80,,,≥ 80,≥ 80,≥ 80,≥ 80,≥ 80,,≥ 80
151 to 163,CCn1c(-n2ncnc2N)nc2cncc(C(C)=NOCC3CC3)c21 [Compound 141],≥ 80,,≥ 80,≥ 80,,,≥ 80,≥ 80,≥ 80,,≥ 80,,≥ 80
,CCn1c(-n2ncnc2N)nc2cncc(C(C)=NOCC=C(Cl)Cl)c21 [Compound 155],≥ 80,≥ 80,≥ 80,≥ 80,≥ 80,≥ 80,≥ 80,≥ 80,≥ 80,≥ 80,,≥ 80,
,CCn1c(-n2ncnc2N)nc2cncc(/C(C)=N\OCC(C)C)c21 [Compound 161],≥ 80,≥ 80,≥ 80,≥ 80,,≥ 80,≥ 80,≥ 80,≥ 80,,,≥ 80,
,CCn1c(-n2ncnc2N)nc2cncc(C(C)=NOCc3ccccc3)c21 [Compound 165],≥ 80,≥ 80,,≥ 80,≥ 80,≥ 80,≥ 80,≥ 80,≥ 80,≥ 80,,≥ 80,
